Measured values reported in US20100062492A1, “Method For Preparing Icariside II, Cosmetic Composition Containing The Same and the Use Thereof For Skin Whitening” (Amorepacific Corporation, priority 2006, published 2010).

How the values were obtained:
[1] = system: tyrosinase in human melanoma cell HM3KO cells; test: Effect on glycosylation of human melanoma cell tyrosinase (endoglycosidase H digestion, electrophoresis, immunodetection); format: cell-based; conditions: HM3KO cells cultured to confluency with 0.05% sample; about 72 kD = normally glycosylated, about 60 kD = glycosylation inhibited
Experimental: In order to examine the effect of icariside II on the glycosylation of tyrosinase in human melanoma cells, the following test was carried out. First, human melanoma cell HM3KO cells (Y. Funasaka, Department of dermatology, Kobe university school of medicine, 5-1 Kusunoki-cho 7-chrome, Chuo-ku, Kobe 650, Japan) were cultured in a minimum essential medium (MEM), containing 10% bovine fetal serum, under conditions of 37° C. and 5% CO2. The cultured cells were placed in 75 cm^2 flasks at a cell density of 3×10^5 cells and left to stand overnight, such that the cells adhered to the flask wall. From the next day, the medium was replaced with a fresh medium, containing each of icariin icariside II of Example 1 and deoxynojirimycin in an amount of 0.05%. Herein, the deoxynojirimycin was used as a positive control group. The medium was replaced with a fresh medium containing each of the samples at a 1-2-day interval, and the cells were cultured to confluency in the flasks. When the cells reached confluency, the cells were collected, added to lysis buffer (2% CHAPS in 50 mM Hepes and 200 mM NaCl, pH 7.5, protease inhibitors) and ultrasonically disrupted. The disrupted cell solution was centrifuged at 4° C. and 12000 rpm for 10 minutes, unbroken cells and melanin were separated and removed, and only the supernatant was collected. Endoglycosidase H (125 units) was added to the supernatant (protein amount: […]), and the supernatant was subjected to an enzymatic reaction at 37° C. for 1 hour. Then, proteins in the supernatant were separated according to size by electrophoresis. Among the proteins separated by electrophoresis, tyrosinase could be observed by an immune reaction with an antibody. […]

[2] = system: alpha-glucosidase (Sigma); test: Test of alpha-glucosidase inhibitory effect; format: biochemical; conditions: 0.01 ml of 10 mg/ml sample; 50 U/ml alpha-glucosidase; 5 mM p-nitrophenyl-α-D-glucopyranoside, 37° C., 5 minutes; absorbance at 405 nm; untreated group = 100.0
Experimental: In this regard, the deoxynojirimycin was used as a positive control group. Each of the samples was measured for absorbance at 405 nm to determine initial absorbance, and 0.05 ml of 5 mM p-nitrophenyl-α-D-glucopyranoside as a substrate was added thereto and subjected to an enzymatic reaction at 37° C. for 5 minutes. Then, each sample was measured for absorbance at 405 nm, and the enzyme activity inhibition thereof was calculated according to Math Figure 1. Alpha-glucosidase activity inhibition (%)=100−(absorbance of each test sample/absorbance of control group×100) [Math Figure 1]

[3] = system: human skin; test: Test of whitening effect on human skin after UVB-induced blackness; format: in vivo; conditions: 1% solution in 1,3-butyleneglycol:ethanol=7:3 applied to UVB-irradiated upper arm of 12 healthy men, 10 weeks; ΔL* higher than about 1.5 = whitening effect
Description: First, a perforated opaque tape having a diameter of 1.5 cm was attached to the upper arm of each of 12 healthy men. Then, UV rays (UVB) were irradiated to each of the subjects at a dose 1.5-2 times higher than the minimal erythema dose of each subject, thus inducing skin's blackness.
After the UV irradiation, each of a 1% solution of icariside (1,3-butyleneglycol:ethanol=7:3, as a vehicle), prepared in Example 1, a 1% solution of hydroquinone, a 1% solution of vehicle (negative control group), was applied to the skin of each subject. […] The skin color was measured with a colorimeter (Minolta, Japan) at a 1-week interval.
ΔL*=L* value at time point of completion of application−L* value at time point of start of application [Math Figure 2]

SMILES | size of tyrosinase after endoglycosidase H treatment (FIG. 1) [1] | Activity inhibition (%) [2] [%] | Lightless (ΔL*) of skin color [3]
OC[C@H]1NC[C@H](O)[C@@H](O)[C@@H]1O [Deoxynojirimycin, deoxynojirimycin, reference compound] | about 60 kD | 41.1 | 
COc1ccc(-c2oc3c(CC=C(C)C)c(O)cc(O)c3c(=O)c2O[C@@H]2O[C@H](C)[C@@H](O)[C@H](O)[C@@H]2O)cc1 [Example 1, icariside II] | about 60 kD | 38.2 | 1.97 ± 0.25
COc1ccc(-c2oc3c(CC=C(C)C)c(O)cc(O)c3c(=O)c2O[C@@H]2O[C@H](C)[C@@H](O)[C@H](O)[C@@H]2O)cc1 [Example 2, icariside II] |  | 38.8 | 
COc1ccc(-c2oc3c(CC=C(C)C)c(O)cc(O)c3c(=O)c2O[C@@H]2O[C@H](C)[C@@H](O)[C@H](O)[C@@H]2O)cc1 [Example 3, icariside II] |  | 37.5 | 
COc1ccc(-c2oc3c(CC=C(C)C)c(O)cc(O)c3c(=O)c2O[C@@H]2O[C@H](C)[C@@H](O)[C@H](O)[C@@H]2O)cc1 [Example 4, icariside II] |  | 37.9 | 
COc1ccc(-c2oc3c(CC=C(C)C)c(O)cc(O)c3c(=O)c2O[C@@H]2O[C@H](C)[C@@H](O)[C@H](O)[C@@H]2O)cc1 [Example 5, icariside II] |  | 37.8 | 
Oc1ccc(O)cc1 [Hydroquinone, hydroquinone, reference compound] |  |  | 1.90 ± 0.11
COc1ccc(-c2oc3c(CC=C(C)C)c(O[C@@H]4O[C@H](CO)[C@@H](O)[C@H](O)[C@H]4O)cc(O)c3c(=O)c2O[C@@H]2O[C@@H](C)[C@H](O)[C@@H](O)[C@H]2O)cc1 [Icariin, icariin, reference compound] | about 72 kD | 98.8 | 
